Measurements from patent publication US9345774B2, “Topical composition comprising a film-forming polymer for delivering an active ingredient to skin” (LEO PHARMA A/S, priority 2012, dated 2016).

Assay: Chemical stability of calcipotriol in contact with container inner coating
Type: physicochemical

## C=C1/C(=C\C=C2/CCC[C@]3(C)[C@@H]([C@H](C)/C=C/[C@@H](O)C4CC4)CC[C@@H]23)C[C@@H](O)C[C@@H]1O [calcipotriol]
Epoxyphenol resin inner lacquer
  chemical stability of calcipotriol: unacceptable chemical degradation
polyimide-polyamide resin as inner coating
  chemical stability of calcipotriol: satisfactory
